Where two headings read alike, the source gives them in different places.
Legend:
[1] = system: adenocarcinoma transplanted in C3H mice; details: dose of 10 mg/kg, Kjellen and Pero 1987 abstract; cited from earlier work
[2] = Cytotoxicity by trypan blue exclusion in HML; type: cell-based; details: human, mononuclear leukocytes
[3] = system: human squamous cell carcinoma (SCC) (ABII) of the head and neck xeno-grafted to nude mice; assay: Growth of human SCC (ABII) xenografted to nude mice, CDDP with or without metoclopramide; type: in vivo; details: for Reduction in AUC (area under plotted tumor growth curves), agent given alone: schedules A and B, metoclopramide 2.0 mg/kg i.p. (x1 or x3), CDDP 7.5 mg/kg i.p.
Description: Cisplatin (cis-diamine-dichloroplatinum=CDDP) is a heavy metal complex with alkylating properties which allow bifunctional linking to DNA. CDDP has been used successfully as a chemotherapeutic agent to treat several types of human cancers. Since CDDP treatment regimes induce nausea and vomiting, metoclopramide is often co-administered therewith as an antiemetic drug.
Two administration schedules were tested: (A) metoclopramide (2.0 mg/kg i.p.) one hour before CDDP (7.5 mg/kg i.p.) and (B) metoclopramide (2.0 mg/kg×3 treatment times) given separately concomitant to CDDP (7.5 mg/kg i.p.) and 24 hr and 48 hr after CDDP administration. In both schedules the combined treatment was compared with CDDP alone, metoclopramide alone and with physiologic saline treated tumor bearing animals (controls). The tumor line used was a poorly difterentiated human SSC originating from the nose. There were n=10 animals in each group. Tumor diameters and animal weight were recorded and plotted twice weekly for 21 days. Treatment efficacies were compared using the area under the plotted growth curves (AUC).

[4] = system: ADPRT (adenosine diphosphate ribosyl transferase); assay: ADPRT activity in permeabilized HML after 30 min exposure; type: cell-based, human; details: average of duplicates
Description: The data were recorded as cpm TCA precipitable [^3 H]NAD per 1×10^6 cells.

ADPRT = details: Sims et al, Biochem. 21:1813-1821, 1982; cited from earlier work
[5] = system: Human mononuclear leukocytes (HML); assay: Cytotoxicity by trypan blue exclusion in HML; type: cell-based; details: for % Dead Cells 30 min: 0.5 h
calmodulin = details: cited from earlier work
[6] = 100 μM agent, 30 min incubation, HML, read-out: % Dead Cells 30 min
[7] = 500 μM agent, 30 min incubation, HML, read-out: % Dead Cells 30 min

NC(=O)c1ccccc1 [benzamide]
Radiosensitization of adenocarcinoma [1]: totally ineffective

CCN(CC)CCNC(=O)c1cc(Cl)c(N)cc1OC [Metoclopramide, 4-amino-5-chloro-N-[(2-diethylamino)ethyl]-2-methoxy-benzamide]
cytotoxicity at 0.5 h, 500 µM [2]: 7% | cytotoxicity at 0.5 h, 2000 µM [2]: 13% | cytotoxicity at 0.5 h, 5000 µM [2]: 10% | cytotoxicity at 0.5 h, 10000 µM [2]: 22% | cytotoxicity at 18 h, 500 µM [2]: 8% | cytotoxicity at 18 h, 2000 µM [2]: 29% | cytotoxicity at 18 h, 5000 µM [2]: 58% | cytotoxicity at 18 h, 10000 µM [2]: 88% | Effect of adding metoclopramide to CDDP on AUC ([3]; schedule A: metoclopramide 2.0 mg/kg i.p. one hour before CDDP 7.5 mg/kg i.p.): did not give any additive effect | Effect of adding metoclopramide to CDDP on AUC ([3]; schedule B: metoclopramide 2.0 mg/kg x3, concomitant to CDDP 7.5 mg/kg i.p. and 24 hr and 48 hr after): potentiated the effect of CDDP | Reduction in AUC (area under plotted tumor growth curves), agent given alone ([3]; 21 days): In neither schedule A nor B did metoclopramide alone induce any significant reduction in AUC | ADPRT Activity ([4]; 500 μM agent): 530 cpm TCA precipitable [3H]NAD p | ADPRT Activity ([4]; 2000 μM agent): 703 cpm TCA precipitable [3H]NAD p | ADPRT Activity ([4]; 5000 μM agent): 950 cpm TCA precipitable [3H]NAD p | ADPRT Activity ([4]; 10000 μM agent): 870 cpm TCA precipitable [3H]NAD p

NCCCCCCNS(=O)(=O)c1cccc2c(Cl)cccc12 [W-7, N(6-aminohexyl)-5-chloro-1-naphthalenesulfonamide]
cytotoxicity at 0.5 h, 50 µM [2]: 10% | cytotoxicity at 0.5 h, 100 µM [2]: 25% | cytotoxicity at 0.5 h, 200 µM [2]: 90% | ADPRT Activity ([4]; 50 μM agent): 750 cpm TCA precipitable [3H]NAD p | ADPRT Activity ([4]; 100 μM agent): 910 cpm TCA precipitable [3H]NAD p | ADPRT Activity ([4]; 200 μM agent): 1480 cpm TCA precipitable [3H]NAD p

Nc1cccc(C(=O)O)c1 [3-aminobenzoic acid]
Inhibition of ADPRT (ADPRT): failed to inhibit ADPRT

Nc1ccc(C(=O)O)cn1 [6-amino nicotinic acid]
Inhibition of ADPRT (ADPRT): failed to inhibit ADPRT

CC(CN(C)C)CN1c2ccccc2Sc2ccccc21 (centres unmarked) [Trimeprazine]
cytotoxicity at 0.5 h, 500 µM [2]: 95% | cytotoxicity at 0.5 h, 100 µM [2, 6]: 7% | ADPRT Activity ([4]; 100 μM agent): 639 cpm TCA precipitable [3H]NAD p | ADPRT Activity ([4]; 500 μM agent): 571 cpm TCA precipitable [3H]NAD p

Cc1ccc(C2(O)CCN(CCCC(=O)c3ccc(F)cc3)CC2)cc1 [Moperone, 1(4-fluorophenyl)-4-[4-hydroxy-4(4-methylphenyl)1-piperidinyl]-1-butanone]
cytotoxicity at 0.5 h, 100 µM [2, 6]: 5% | cytotoxicity at 0.5 h, 500 µM [2, 7]: 7% | cytotoxicity at 0.5 h, 1000 µM ([2]; 1000 μM agent, 30 min incubation, HML, read-out: % Dead Cells 30 min): 26% | cytotoxicity at 18 h, 1000 µM ([2]; 1000 μM agent, 18 hr incubation, HML, read-out: % Dead Cells 18 hr): 100% | ADPRT Activity ([4]; 100 μM agent): 529 cpm TCA precipitable [3H]NAD p | ADPRT Activity ([4]; 500 μM agent): 712 cpm TCA precipitable [3H]NAD p | ADPRT Activity ([4]; 1000 μM agent): 1112 cpm TCA precipitable [3H]NAD p

NC(=O)c1cccnc1 [Nicotinamide]
Radiosensitization of adenocarcinoma [1]: will radiosensitize

CC(CN1CCN(CCOCCO)CC1)CN1c2ccccc2Sc2ccccc21 (centres unmarked) [Dixyrazine]
cytotoxicity at 0.5 h, 100 µM [2, 6]: 13% | cytotoxicity at 18 h, 100 µM ([2]; 100 μM agent, 18 hr incubation, HML, read-out: % Dead Cells 18 hr): 78% | cytotoxicity at 0.5 h, 500 µM [2, 7]: 79% | cytotoxicity at 18 h, 500 µM ([2]; 500 μM agent, 18 hr incubation, HML, read-out: % Dead Cells 18 hr): 100% | ADPRT Activity ([4]; 100 μM agent): 385 cpm TCA precipitable [3H]NAD p | ADPRT Activity ([4]; 500 μM agent): 850 cpm TCA precipitable [3H]NAD p

OO [H2 O2]
% Dead Cells 30 min ([5]; 100 µM): 5% | % Dead Cells 30 min ([5]; 300 µM): 5% | % Dead Cells 30 min ([5]; 500 µM): 7% | % Dead Cells 30 min ([5]; 1000 µM): 12% | % Dead Cells 18 hr ([5]; 100 µM): 40% | % Dead Cells 18 hr ([5]; 300 µM): 41% | % Dead Cells 18 hr ([5]; 500 µM): 55% | % Dead Cells 18 hr ([5]; 1000 µM): 71% | ADPRT Activity ([4]; 100 μM agent): 1800 cpm TCA precipitable [3H]NAD p | ADPRT Activity ([4]; 300 μM agent): 2700 cpm TCA precipitable [3H]NAD p | ADPRT Activity ([4]; 500 μM agent): 2900 cpm TCA precipitable [3H]NAD p | ADPRT Activity ([4]; 1000 μM agent): 3000 cpm TCA precipitable [3H]NAD p

CN(C)CCCN1c2ccccc2Sc2ccc(Cl)cc21 [Chlorpromazine, 2chloro-N,N-dimethyl-10H-phenothiazine-10-propanamine]
cytotoxicity at 0.5 h, 100 µM [2, 6]: 50% | cytotoxicity at 0.5 h, 500 µM [2, 7]: 100% | ADPRT Activity ([4]; 100 μM agent): 1508 cpm TCA precipitable [3H]NAD p | ADPRT Activity ([4]; 500 μM agent): 890 cpm TCA precipitable [3H]NAD p

pyrazine 1,2-dicarboxylic acid
Inhibition of ADPRT (ADPRT): failed to inhibit ADPRT

O=C(O)c1ccccc1 [benzoic acid]
Inhibition of ADPRT (ADPRT): failed to inhibit ADPRT

N.N.[Cl][Pt][Cl] [CDDP, cis-diamine-dichloroplatinum]
AUC as % of control tumor growth ([3]; schedule B: CDDP 7.5 mg/kg i.p., metoclopramide 2.0 mg/kg x3 (concomitant, 24 hr, 48 hr), 21 days): 72 % of control tumor growth | Reduction in AUC (area under plotted tumor growth curves), agent given alone ([3]; 21 days): significant reduction of AUC-values

O=C(O)c1ccncc1 [isonicotinic acid]
Inhibition of ADPRT (ADPRT): failed to inhibit ADPRT

NCCCCCCNS(=O)(=O)c1cccc2ccccc12 [W-5, N(6-aminohexyl)-naphthalenesulfonamide]
cytotoxicity at 0.5 h, 50 µM ([2]; 50 μM agent, 30 min incubation, HML, read-out: % Dead Cells 30 min): < 5% | cytotoxicity at 0.5 h, 100 µM [2, 6]: < 5% | cytotoxicity at 0.5 h, 200 µM ([2]; 200 μM agent, 30 min incubation, HML, read-out: % Dead Cells 30 min): 7% | Calmodulin antagonist activity at fixed concentration (calmodulin; 50 μM): inactive | IC50 (calmodulin; Hidaka et al, Proc. Natl. Acad. Sci. U.S.A. 78:4354-4357, 1981, read-out: IC50 dose as calmodulin antagonist): ~250 µM | ADPRT Activity ([4]; 50 μM agent): 395 cpm TCA precipitable [3H]NAD p | ADPRT Activity ([4]; 100 μM agent): 415 cpm TCA precipitable [3H]NAD p | ADPRT Activity ([4]; 200 μM agent): 425 cpm TCA precipitable [3H]NAD p
